Laboratory results as given in patent US20140314697A1, “Method for Inhibiting Inflammation and Reducing Melanophilin Expression with Glycine Derivatives And the Composition Thereof” (CORUM INC., priority 2013, published 2014).

Columns and labels:
[1] = system: Mlph (melanophilin) mRNA in B16-F10 cells; assay: Reduction of melanophilin expression on transcriptional level (qPCR); type: cell-based, Murine
Procedure: Murine melanoma cell line B16-F10 (BCRC No. 60031)
a. Rinse the confluent B16-F10 cells with sterile D-PBS then trypsinize all cells and perform cell counting.
b. Seeding 2E+06 cells per 10-cm dish.
c. Incubate B16F10 cells at 37° C., 5% CO2 for about 24 hours.
d. Prepared 0.5% testing material in Complete Medium.
e. Discard the medium and add 9 mL Complete Medium and 0.5% testing material into B16-F10 cells in 10-cm dish.
f. Incubate B16-F10 cells at 37° C., 5% CO2 for about 1 hour.
g. After incubating for about 1 hour, discard the supernatant and wash the B16-F10 cells with sterile D-PBS.
h. Add 3 mL Trizol to suspend cells and qPCR test by Welgene Biotech Co., Ltd (outsourcing test).

[2] = system: skin color (hyper pigmentation); assay: Skin whitening test: skin color changes (L* value), Minolta chromameter; type: in vivo, human; conditions: for Hyper pigmentation Reduction - Skin Color Data, Max % Improvement / Hyper pigmentation Reduction - Skin Color Data, % Difference: 0.2% Ac-Gly-β-Ala sample; for Hyper pigmentation Reduction - Skin Color Data, % Difference: L* value
Procedure: In this example, the in-vivo skin test is finished by AMA Laboratories USA. The skin color changes are evaluated with Minolta chromameter color computer system. The Age spot photography is evaluated with Reverse Photo Engineering Quantitative Analysis.
In terms of skin color changes, the participants were women aged 25-48 years old, wherein nine of the participants were caucasian, and one was Asian. The participants were tested before (baseline), and after using 14, 28, 56 days with Minolta chromameter color computer system to perform the skin color change evaluation. And the samples used for the skin color change evaluation is 0.2% Ac-Gly-β-Ala.

[3] = system: Human IL-6 secretion, Normal Human Epidermal Keratinocytes (NHEK); assay: Human IL-6 production in UVB-irradiated NHEK (ELISA); type: cell-based; conditions: for Human IL-6 Content, Average: 40 mJ/cm^2 UVB; for Human IL-6 Content, Average / Human IL-6 Content, Entry 1 / Human IL-6 Content, Entry 2 / Human IL-6 Content, Entry 3 / Human IL-6 Content, Entry4: Positive Control 100%; for Human IL-6 Content, Entry 1 / Human IL-6 Content, Entry 2: passage 2 + 2, 40 mJ/cm^2 UVB; for Human IL-6 Content, Entry 3 / Human IL-6 Content, Entry4: passage 2 + 3, 40 mJ/cm^2 UVB
Procedure: (§1) Normal Human Epidermal Keratinocytes (NHEK) (PromoCell No. C-12008);
(§2) Positive Control: 40 mJ/cm^2 UVB,
(§3) Negative Control: No UVB irradiation;
(§4) a. Rinse the confluent NHEK cells with sterile D-PBS then trypsinize all cells and perform cell counting.
(§5) b. Dilute the cell density to 4˜8E+04/mL and seed 0.5 mL cell liquid (equals to 2˜4E+04 cells) each well in 24 well plate.
(§6) c. Incubate NHEK cells at 37° C., 5% CO2 until subconfluence.
(§7) d. Prepared dosing solution of testing material in Complete Medium: 0.4%, 0.2%, 0.1%, 0.05%.
(§8) e. Rinse the NHEK cells with sterile D-PBS and discard rinse buffer. Add 400 μL of controls and testing materials in different concentrations into NHEK cells in 24 well plates.
(§9) f. Pre-incubate NHEK cells with testing material at 37° C., 5% CO2 for about 6 hours.
(§10) g. After pre-incubating for about 6 hours, wash the NHEK cells with sterile D-PBS for twice then add […] sterile D-PBS for UVB irradiation.
(§11) h. UVB intensity is about 2300 μW/cm^2 and UVB energy is about 40 mJ/cm^2.
(§12) i. After UVB irradiation, discard sterile D-PBS and wash again. Add 400 μL of the same dosing solution in to each wells.
(§13) j. Post-incubate at 37° C., 5% CO2 for about 18 hours.
(§14) k. After post-incubating for 18 hours, collect the supernatant of controls and testing materials.
(§15) l. Determine the IL-6/IL-8 content of the supernatant by R&D ELISA kit as mentioned previously.
(§16) Normal Human Epidermal Keratinocytes (NHEK) were treated by the above-mentioned glycine derivatives for evaluating their anti-inflammatory effect on keratinocytes in this example.

[4] = system: Human IL-8 secretion, Normal Human Epidermal Keratinocytes (NHEK); assay: Human IL-8 production in UVB-irradiated NHEK (ELISA); type: cell-based; conditions: for Human IL-8 Content, Average: 40 mJ/cm^2 UVB; for Human IL-8 Content, Average / Human IL-8 Content, Entry 1 / Human IL-8 Content, Entry 2 / Human IL-8 Content, Entry 3: Positive Control 100%; for Human IL-8 Content, Entry 1: passage 2 + 2, 40 mJ/cm^2 UVB; for Human IL-8 Content, Entry 2 / Human IL-8 Content, Entry 3: passage 2 + 3, 40 mJ/cm^2 UVB
Procedure: as §1, §2, §3, §4, §5, §6, §7, §8, §9, §10, §11, §12, §13, §14, §15, §16

[5] = 0.5% Ac-Gly-β-Ala, B16-F10, about 1 hour, Control 100%

SMILES: CC(=O)NCC(=O)NCCC(=O)O [Ac-Gly-β-Ala, 3-(2-acetylamino-acetylamino)-propionic acid]
- Mlph mRNA expression level, Average [1, 5]: 55%
- Mlph mRNA expression level, Entry 1 [1, 5]: 80%
- Mlph mRNA expression level, Entry 2 [1, 5]: 40%
- Mlph mRNA expression level, Entry 3 [1, 5]: 46%
- effect on Mlph in transcriptional (mRNA) level ([1]; 0.5%, B16-F10): inhibitory effect
- Hyper pigmentation Reduction - Skin Color Data, Max % Improvement ([2]; Day 14): 62.84%
- Hyper pigmentation Reduction - Skin Color Data, % Difference ([2]; Day 14 vs baseline): 26.90%*
- Hyper pigmentation Reduction - Skin Color Data, Max % Improvement ([2]; Day 28): 87.34%
- Hyper pigmentation Reduction - Skin Color Data, % Difference ([2]; Day 28 vs baseline): 41.07%*
- Hyper pigmentation Reduction - Skin Color Data, Max % Improvement ([2]; Day 56): 87.97%
- Hyper pigmentation Reduction - Skin Color Data, % Difference ([2]; Day 56 vs baseline): 41.64%*
- L* value of skin ([2]; test sample with 0.2% Ac-Gly-β-Ala): can increase the L* value of skin
- IL-6 production, dose dependence ([3]; 0.05%-0.4%, UVB): dose-dependently inhibited
- Human IL-6 Content, Average ([3]; Table 6, 0.05%): 59%
- Human IL-6 Content, Entry 1 ([3]; Table 6, 0.05%): 68%
- Human IL-6 Content, Entry 2 ([3]; Table 6, 0.05%): 58%
- Human IL-6 Content, Entry 3 ([3]; Table 6, 0.05%): 49%
- Human IL-6 Content, Entry4 ([3]; Table 6, 0.05%): 62%
- Human IL-6 Content, Average ([3]; Table 6, 0.10%): 34%
- Human IL-6 Content, Entry 1 ([3]; Table 6, 0.10%): 43%
- Human IL-6 Content, Entry 2 ([3]; Table 6, 0.10%): 25%
- Human IL-6 Content, Entry 3 ([3]; Table 6, 0.10%): 28%
- Human IL-6 Content, Entry4 ([3]; Table 6, 0.10%): 42%
- Human IL-6 Content, Average ([3]; Table 6, 0.20%): 15%
- Human IL-6 Content, Entry 1 ([3]; Table 6, 0.20%): 19%
- Human IL-6 Content, Entry 2 ([3]; Table 6, 0.20%): 10%
- Human IL-6 Content, Entry 3 ([3]; Table 6, 0.20%): 10%
- Human IL-6 Content, Entry4 ([3]; Table 6, 0.20%): 20%
- Human IL-6 Content, Entry 1 ([3]; Table 6, 0.40%): 0%
- Human IL-6 Content, Entry 2 ([3]; Table 6, 0.40%): 0%
- Human IL-6 Content, Entry 3 ([3]; Table 6, 0.40%): 0%
- Human IL-6 Content, Entry4 ([3]; Table 6, 0.40%): 10%
- IL-8 production, dose dependence ([4]; 0.05%-0.4%, UVB): inhibited IL-8 production in dose-dependent manner
- Human IL-8 Content, Average ([4]; Table 7, 0.05%): 97%
- Human IL-8 Content, Entry 1 ([4]; Table 7, 0.05%): 107%
- Human IL-8 Content, Entry 2 ([4]; Table 7, 0.05%): 81%
- Human IL-8 Content, Entry 3 ([4]; Table 7, 0.05%): 103%
- Human IL-8 Content, Average ([4]; Table 7, 0.10%): 80%
- Human IL-8 Content, Entry 1 ([4]; Table 7, 0.10%): 76%
- Human IL-8 Content, Entry 2 ([4]; Table 7, 0.10%): 70%
- Human IL-8 Content, Entry 3 ([4]; Table 7, 0.10%): 93%
- Human IL-8 Content, Average ([4]; Table 7, 0.20%): 69%
- Human IL-8 Content, Entry 1 ([4]; Table 7, 0.20%): 77%
- Human IL-8 Content, Entry 2 ([4]; Table 7, 0.20%): 72%
- Human IL-8 Content, Entry 3 ([4]; Table 7, 0.20%): 59%
- Human IL-8 Content, Entry 1 ([4]; Table 7, 0.40%): 10%
- Human IL-8 Content, Entry 2 ([4]; Table 7, 0.40%): 5%
- Human IL-8 Content, Entry 3 ([4]; Table 7, 0.40%): 13%
